Laboratory results: patent US7408071B2, “N-aryl pyrrolidine derivatives as beta-secretase inhibitors” (Bristol-Myers Squibb Company, priority 2006, dated 2008)

Each compound was assayed against T1, BACE1 enzyme (Homo sapiens, UniProt P56817) (assay: Radioligand displacement assay with a radiolabeled BACE inhibitor on HEK293-9B.A1 cell homogenate). Settings: displacement of 1 nM tritiated radioligand, HEK293-9B.A1 homogenate, pH 5.0, 1.5 hr at 25° C.; read-out: Activity Rating (activity based on IC50 values).
T1 construct: The HEK293-9B.A1 cell line, which overexpresses the BACE1 enzyme, was derived from HEK293 cells; endogenous in cells; washed 48,000xg membrane pellet/homogenate
T1 sequence (P56817 46-501): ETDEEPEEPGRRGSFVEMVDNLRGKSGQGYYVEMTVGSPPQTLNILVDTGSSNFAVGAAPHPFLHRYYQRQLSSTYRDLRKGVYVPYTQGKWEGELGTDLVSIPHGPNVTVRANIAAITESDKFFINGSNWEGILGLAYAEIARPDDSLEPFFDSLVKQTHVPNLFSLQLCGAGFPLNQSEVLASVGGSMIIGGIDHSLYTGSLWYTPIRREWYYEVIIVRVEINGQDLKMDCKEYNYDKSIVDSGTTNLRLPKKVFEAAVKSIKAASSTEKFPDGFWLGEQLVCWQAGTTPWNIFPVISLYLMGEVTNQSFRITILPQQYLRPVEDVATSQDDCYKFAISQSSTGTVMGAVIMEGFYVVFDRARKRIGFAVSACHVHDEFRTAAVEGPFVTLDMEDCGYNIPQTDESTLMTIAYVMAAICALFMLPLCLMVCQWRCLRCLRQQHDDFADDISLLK
Assay type: binding
Source text: There are a number of methods by which inhibitors of the BACE enzyme can be identified experimentally. The enzyme can be obtained from membrane samples from natural tissues or cultured cells or can be expressed recombinantly in a host cell by well known methods of molecular biology. The whole enzyme or a portion thereof can be expressed, for example, in bacterial, insect or mammalian cells to obtain a catalytically active enzyme species. The enzymatic activity and/or ligand binding capability of the enzyme can be assessed within these membrane samples, or the enzyme can be purified to varying extents. As an illustrative example, the nucleic acid sequence encoding the pro and catalytic domains of human BACE can be appended on the 5′ end with an untranslated and signal sequence from the gene for acetylcholinesterase, and on the 3′ end with a sequence encoding a poly-histidine tag. This cDNA can then be expressed in Drosophila melanogaster S2 cells in which the signal and pro sequences of the transcribed/translated protein are removed by cellular proteases and the catalytic domain, appended by a C-terminal poly-histidine tag, is secreted out into the cellular medium. The enzyme can then be purified from the culture medium by nickel affinity chromatography by methods well known to those trained in the art [Mallender, W. et al., (2001) “Characterization of recombinant, soluble beta-secretase from an insect cell expression system.” Mol. Pharmacol. 59: 619-626]. Similar strategies for expressing and purifying various forms of BACE in bacterial, mammalian and other cell types would be known to one skilled in the art. A preferred method for determining the potency of a test compound in binding to the BACE enzyme is by monitoring the displacement of a suitable radioligand.
Radioligand displacement assays with a radiolabeled BACE inhibitor (WO 2004 013098, compound 3, where the methoxy group is substituted for C(^3H)3) were carried out using standard methods (Keen, M. (1999) in Receptor Binding Techniques (Walker, J. M. ed) p. 106 Humana Press, Totowa, N.J.). The HEK293-9B.A1 cell line, which overexpresses the BACE1 enzyme, was derived from HEK293 cells (Simmons, N. L. (1990) A cultured human renal epithelioid cell line responsive to vasoactive intestinal peptide. Exp. Physiol. 75:309-19.) by RAGE™ (Harrington, J. J. et al. (2001) Creation of genome-wide protein expression libraries using random activation of gene expression. Nat. Biotechnol. 19:440-5.; U.S. Pat. Nos. 6,410,266 and 6,361,972). T225 flask cultures of HEK293-9B.A1 were grown to 80% confluency in DMEM supplemented with 2 mM L-glutamine, 10 μg/ml penicillin, 10 μg/ml streptomycin, 3 μg/ml puromycin, 100 nM methotrexate, and 10% fetal bovine serum (Invitrogen, Carlsbad, Calif.), harvested, and resuspended at 2×10^8 cells per 10 ml of lysis buffer consisting of 50 mM HEPES pH 7.0 containing a protease inhibitor cocktail of AEBSF 104 μM, aprotinin 80 nM, leupeptin 2 μM, bestatin 4 μM, pepstatin A 1.5 μM, and E-64 1.4 μM (0.1% of protease inhibitor cocktail P8340, Sigma-Aldrich, St. Louis, Mo.) at 4° C. The resuspended cells were homogenized using a Polytron (Brinkman, Westbury, N.Y.) at setting 6 for 10 sec., then centrifuged at 48,000×g for 10 min. The resulting pellet was washed by repeating the resuspension, homogenization and centrifugation steps. The final pellet was resuspended in buffer at 4° C. to yield a total protein concentration of 5 mg/ml, then aliquots were frozen in liquid nitrogen for further storage at −70° C. Immediately before carrying out a binding assay, an aliquot of cell homogenate was thawed and diluted to a concentration of 100 μg/ml in assay buffer consisting of 50 mM HEPES pH 5.0 and 0.1% CHAPSO. […]

| Structure (SMILES) | IC50 |
| --- | --- |
| N/C(=N\C(=O)[C@@H]1CCCN1c1ccccc1)NCc1cc(Cl)c(N)c(Cl)c1 [Example 1, (S)—N-((4-Amino-3,5-dichlorobenzylamino)(amino)methylene)-1-phenylpyrrolidine-2-carboxamide] | 100 to 1000 nM |
| CC(=O)Nc1c(Cl)cc(CN/C(N)=N/C(=O)[C@@H]2CCCN2c2ccccc2)cc1Cl [Example 2, (S)—N-((4-Acetamido-3,5-dichlorobenzylamino)(amino)methylene)-1-phenylpyrrolidine-2-carboxamide] | 100 to 1000 nM |
| CN(C)CC(=O)Nc1c(Cl)cc(CN/C(N)=N/C(=O)[C@@H]2CCCN2c2ccccc2)cc1Cl [Example 3, (S)—N-((3,5-Dichloro-4-(2-(dimethylamino)-acetamido)-benzylamino)(amino)methylene)-1-phenylpyrrolidine-2-carboxamide] | 100 to 1000 nM |
| COc1ccc(N2CCC[C@H]2C(=O)/N=C(\N)NCc2cc(Cl)c(NC(=O)CN(C)C)c(Cl)c2)cc1 [Example 6, (S)—N-((3,5-Dichloro-4-(2-(dimethylamino)acetamido)benzylamino)-(amino)methylene)-1-(4-methoxyphenyl)pyrrolidine-2-carboxamide] | 100 to 1000 nM |
| CO[C@@H]1C[C@@H](C(=O)/N=C(\N)NCc2cc(Cl)c(NC(C)=O)c(Cl)c2)N(c2ccccc2)C1 [Example 32, (2S,4R)—N-((4-Acetamido-3,5-dichlorobenzylamino)(amino)-methylene)-4-methoxy-1-phenylpyrrolidine-2-carboxamide] | < 100 nM |
| CN(C)CC(=O)Nc1c(Cl)cc(CN/C(N)=N/C(=O)[C@H]2CCCN2c2ccc(C(F)(F)F)cc2)cc1Cl [Example 31, (R)—N-(Amino(3,5-dichloro-4-(2-(dimethylamino)acetamido)-benzylamino)methylene)-1-(4-(trifluoromethyl)phenyl)pyrrolidine-2-carboxamide] | < 100 nM |
| CO[C@@H]1C[C@@H](C(=O)/N=C(\N)NCc2cc(Cl)c(NC(=O)CN(C)C)c(Cl)c2)N(c2ccccc2)C1 [Example 33, (2S,4R)—N-(Amino(3,5-dichloro-4-(2-(dimethylamino)acetamido)benzylamino)methylene)-4-methoxy-1-phenylpyrrolidine-2-carboxamide] | < 100 nM |
| COc1ccc(N2CCC[C@H]2C(=O)/N=C(\N)NCc2cc(Cl)c(N)c(Cl)c2)cc1 [Example 4, (S)—N-((4-Amino-3,5-dichlorobenzylamino)(amino)methylene)-1-(4-methoxyphenyl)pyrrolidine-2-carboxamide] | 100 to 1000 nM |
| CC(=O)Nc1c(Cl)cc(CN/C(N)=N/C(=O)C2C3CC3CN2c2ccccc2)cc1Cl (stereo not drawn) [Example 34, cis-N-((4-Acetamido-3,5-dichlorobenzylamino)(amino)methylene)-3-phenyl-3-azabicyclo[3.1.0]hexane-2-carboxamide] | 100 to 1000 nM |
| COc1ccc(N2CCC[C@H]2C(=O)/N=C(\N)NCc2cc(Cl)c(NC(C)=O)c(Cl)c2)cc1 [Example 5, (S)—N-((4-Acetamido-3,5-dichlorobenzylamino)(amino)methylene)-1-(4-methoxyphenyl)pyrrolidine-2-carboxamide] | 100 to 1000 nM |
